Source: patent US20250092032A1, “DEOXYCYTIDINE KINASE INHIBITORS” (CENTRE NATIONAL DE LA RECHERCHE SCIENTIFIQUE, priority 2022, published 2025)

Legend:
[1] = tested on: CCRF-CEM cell line (T-cell acute lymphoblastic leukemia); test: Cellular assay: inhibition of CCRF-CEM cell proliferation in presence of dT and dC (CellTiter-Blue); assay type: cell-based; details: Homo sapiens, read-out: CELLULAR ASSAY IC50 (nM), 200 μM dT and 1 μM dC, 72 hours, mean ± SD
Experimental: The cellular assay was set up to assess the ability to inhibit dCK activity in a cellular model. The model was developed with a T-cell acute lymphoblastic leukemia cell line (CCRF-CEM), because of its high dependence on the salvage pathway, thus on dCK activity. Cellular assays were performed to assess the inhibition of cell proliferation under two conditions: i) in the presence of the molecule alone to determine the non-specific effect on cells, independent of dCK (non-specific toxicity) and ii) in the presence of an inhibitor of the De Novo pathway to determine the ability of molecules to inhibit dCK and decrease tumor proliferation (activity on dCK). The inhibitor of the De Novo pathway chosen for the experiments was thymidine (dT), a physiological inhibitor of ribonucleotide reductase which arrests cell proliferation in phase S. The dTTP produced via thymidine kinase from dT acts as a RNR inhibitor by an allosteric regulation of the R1 subunit (FIG. 1). The addition of the nucleoside deoxycytidine (dC) in the medium allows the rescue of cell proliferation by passing only through the salvage pathway, mediated by dCK. Therefore, cell proliferation under these conditions (+dT+dC) is dCK dependent and it is possible to determine the IC50 of dCK inhibitors on the inhibition of cell proliferation. Results are expressed as % cell proliferation relative to the control with DMSO in Table 1.
CCFR-CEM cells were grown at 37° C. in RPMI 1640 with L-glutamine, supplemented with 100 units/ml penicillin, […] streptomycin, and 10% heat-inactivated foetal calf serum. The experiments were carried out on 96-well plates under the following conditions: 14,000 cells per well, RPMI 1640 culture medium supplemented with 10% heat-inactivated foetal calf serum, 200 sM of dT, 1 sM of dC and a range of dilutions of each molecule ranging from 40 μM to 10 μM, depending on the activity of the molecules (final 0.2% DMSO). Cells were incubated for 72 hours under these different conditions and finally, incubated with 10 μl/well of CellTiter-Blue reagent (Promega) for 4 hours at 37° C. The amount of reduced dye formed by metabolically active cells was quantified by its fluorescence measured at 560 nm (excitation) and 590 nm (emission) in a microplate reader (CLARIOstar, BMG Labtech). A blank well without cells was used as a background control. Each experiment was performed at least three times (with technical triplicates) and data are presented as the mean f SD.

dCK = target: T1, dCK (Homo sapiens, UniProt P27707, C45S/C59S/C9S/S74E); test: Affinity assay: Thermal Shift Assay (TSA), dCK thermal stabilization; assay type: binding; details: dCK protein (C9S, C45S, C59S, S74E); 5 sM of protein, 50 sM of compound, 2% DMSO; mean ± SD
T1 construct: inferred from HisTrap purification with imidazole elution; made in house; host or cells: Escherichia coli BL21 pRIL
T1 sequence (P27707 whole entry C9S/C45S/C59S/S74E): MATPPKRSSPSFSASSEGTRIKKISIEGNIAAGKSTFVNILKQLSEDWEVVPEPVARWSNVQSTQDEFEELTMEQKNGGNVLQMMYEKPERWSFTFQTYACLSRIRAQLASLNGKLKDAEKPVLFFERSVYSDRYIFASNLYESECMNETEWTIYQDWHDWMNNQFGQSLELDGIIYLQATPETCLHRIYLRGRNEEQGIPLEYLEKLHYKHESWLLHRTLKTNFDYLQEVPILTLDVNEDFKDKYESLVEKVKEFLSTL
Experimental: dCK protein contained three solvent exposed cysteines mutated to serines in order to generate better quality crystals (C9S, C45S, C59S) and a serine mutated to glutamic acid (S74E). The S74E mutation mimics the phosphorylated state of this serine, which favors the open conformation of the enzyme, making it competent for nucleoside binding to evaluate the binding affinity with compounds. BL21 pRIL Escherichia Coli cells were transformed with dCK-plasmid. Cells were grown in LB media containing 100 μg/ml ampicillin and 34 μg/ml chloramphenicol at 18° C. for 20 h after induction with 1 mM IPTG. Cells were re-suspended in 50 mM TRIS, pH 8, 500 mM NaCl, 30 mM imidazole and 10% glycerol buffer containing one EDTA free anti-protease tablet (Roche). After sonication and centrifugation (30,000×g), the supernatant was loaded on a 5 ml HisTrap FF column (GE healthcare) pre-equilibrated with resuspension buffer. Protein was then eluted by re-suspension buffer containing 500 mM imidazole. Protein eluted fractions were mixed and concentrated. Protein was further purified by size exclusion chromatography (superdex 200 16/600, GE healthcare) in 20 mM HEPES, pH 7.5, and 200 mM NaCl before concentration to 30 mg/ml and storage at −80° C.
Thermal Shift Assay (TSA) experiments were performed in triplicate in 384-well PCR white plates (Thermo Scientific, AB-3384) in the assay buffer containing 20 mM HEPES, pH 7.5 and 200 mM NaCl. Final concentrations were adjusted to 5 sM of protein, 50 sM of compound (final 2% DMSO) and dye diluted to 1:1000, as recommended by manufacturer (Protein Thermal Shift Dye, ThermoFisher Scientific). […] Plates were centrifuged at 1000 rpm for 2 min at 4° C. Thermal melting experiments were carried using a CFX-384 Connect RT-PCR (Bio-Rad). Plates were first equilibrated at 25° C.; then, the plates were heated from 25 to 95° C. by 0.5° C./min steps. Raw fluorescence data were treated, and the melting temperatures (Tm) were calculated using CFX Manager 3.1 software (Bio-Rad). ΔTm represents the difference in Tm between the protein in the presence of compound and the protein alone (both at 2% DMSO). Each experiment was performed at least twice (with technical triplicates) and data are presented as the mean f SD in Table 1.

CCRF-CEM T-ALL cell line = test: In vivo systemic leukemia model: NSG mice inoculated intravenously with luciferase-expressing CCRF-CEM cells; details: for effect on disease progression / disease burden (bioluminescence): CCRF-CEM leukemia bearing NSG mice, dT 1.5 g/Kg, OR0642 40 mg/Kg (hydrochloride salt) i.p., FIG. 5; for day around which most of the mice died: the two components administered separately, FIG. 8
Experimental: Healthy 6 to 9 weeks-old male mice received 0.1×10^6 luciferase transduced-CCRF-CEM cells in the tail vein on Day 0 and were randomly assigned in four groups to receive intraperitoneal injections from Day 3 (Vehicle (n=8), dT (n=8), OR0642 (n=9) and dT+OR0642 (n=9)). […] Doses administered were: dT at 1.5 g/Kg, OR0642 at 40 mg/Kg and dT+OR0642 at 1.5 g/Kg and 40 mg/Kg, respectively. Vehicle was saline solution (0.9% NaCl) supplemented with 10% Kolliphor EL. OR0642 was administered in its hydrochloride salt form. Drug administration protocol is detailed in FIG. 4. Bioluminescence analysis was performed once/week using PhotonIMAGER Optima (Biospace Lab) following addition of endotoxin-free luciferin (30 mg/kg, Promega). Peripheral blood was obtained at Day 21 to determine the fraction of human blasts using flow cytometry. […] Analyses were performed on a Life Science Research Fortessa flow cytometer with DIVA software (BD Biosciences). The number of ALL cells/L peripheral blood was determined by using CountBright beads (Invitrogen, C36950) using described protocol. Daily monitoring of mice for symptoms of disease (ruffled coat, hunched back, weakness and reduced motility) determined the time of killing for injected animals with signs of distress. Kaplan-Meier curves, bioluminescence quantifications and statistical analyses were generated using Prism (Graphpad Software). Bioluminescence data were presented as the mean f SEM. Comparison of bioluminescence data at Day 21 was performed using One way ANOVA Kruskal-Wallis Test and Dunn's Multiple Comparison Test. Comparison of hCD45 populations was performed using One way ANOVA Kruskal-Wallis Test and Dunn's Multiple Comparison Test. Median survival times were compared using Log-Rank (Mantel-Cox) Test.

Cc1ccc(Br)cc1N(CC(C)C)c1nc(-c2nc(N)cc(N)n2)cs1 [OR0637-1, 2-(2-((5-Bromo-2-methylphenyl)(isobutyl)amino)thiazol-4-yl)pyrimidine-4,6-diamine]
IC50 [1]: 8310 ± 1870 nM | AFFINITY ASSAY +ΔTm (°) (dCK): 14.9 ± 0.2 °

CCCN(c1nc(-c2nc(N)cc(N)n2)cs1)c1cc(-c2cnc(O)cc2C(F)(F)F)ccc1C [OR0655, 2-(2-((5-(6-Hydroxy-4-(trifluoromethyl)pyridin-3-yl)-2-methylphenyl)(propyl)amino)thiazol-4-yl)pyrimidine-4,6-diamine]
IC50 [1]: 251 ± 36 nM | AFFINITY ASSAY +ΔTm (°) (dCK): 19.0 ± 0.0 °

CCCN(c1nc(-c2nc(N)cc(N)n2)cs1)c1cc(-c2ccc(S(=O)(=O)N3CCN(C)CC3)cc2C(F)(F)F)ccc1C [OR0642, 2-(2-((4-Methyl-4′-((4-methylpiperazin-1-yl)sulfonyl)-2′-(trifluoromethyl)-[1,1′-biphenyl]-3-yl)(propyl)amino)thiazol-4-yl)pyrimidine-4,6-diamine]
effect on disease progression / disease burden (bioluminescence) (CCRF-CEM T-ALL cell line): did not show any anti-proliferative effect | day around which most of the mice died (CCRF-CEM T-ALL cell line): ~26 days

CCCN(c1nc(-c2nc(N)cc(N)n2)cs1)c1cc(-c2ccc(OCC(=O)N3CCN(C)CC3)nc2)ccc1C [OR0630, 2-((5-(3-((4-(4,6-Diaminopyrimidin-2-yl)thiazol-2-yl)(propyl)amino)-4-methylphenyl)pyridin-2-yl)oxy)-1-(4-methylpiperazin-1-yl)ethan-1-one]
AFFINITY ASSAY +ΔTm (°) (dCK): 17.4 ± 0.2 °

CCCN(c1nc(-c2nc(N)cc(N)n2)cs1)c1cc(-c2cnc(S(=O)(=O)N3CCN(C)CC3)cc2C(F)(F)F)ccc1C [OR0656, 2-(2-((2-Methyl-5-(6-((4-methylpiperazin-1-yl)sulfonyl)-4-(trifluoromethyl)pyridin-3-yl)phenyl)(propyl)amino)thiazol-4-yl)pyrimidine-4,6-diamine]
IC50 [1]: 3.8 ± 2 nM | AFFINITY ASSAY +ΔTm (°) (dCK): 21.3 ± 0.8 °

Cc1ccc(-n2cc(CNS(C)(=O)=O)nn2)cc1N(CC(C)C)c1nc(-c2nc(N)cc(N)n2)cs1 [OR0609, N-((1-(3-((4-(4,6-Diaminopyrimidin-2-yl)thiazol-2-yl)(isobutyl)amino)-4-methylphenyl)-1H-1,2,3-triazol-4-yl)methyl) methanesulfonamide]
IC50 [1]: 3180 ± 611 nM | AFFINITY ASSAY +ΔTm (°) (dCK): 13.5 ± 0.7 °

CCCN(c1nc(-c2nc(N)cc(N)n2)cs1)c1cc(-c2ccc(S(=O)(=O)N3CCN(C)CC3)nc2C(F)(F)F)ccc1C [OR0657, 2-(2-((2-Methyl-5-(6-((4-methylpiperazin-1-yl)sulfonyl)-2-(trifluoromethyl)pyridin-3-yl)phenyl)(propyl)amino)thiazol-4-yl)pyrimidine-4,6-diamine]
IC50 [1]: 1.6 ± 0.9 nM | AFFINITY ASSAY +ΔTm (°) (dCK): 22.0 ± 0.4 °

CCCN(c1nc(-c2nc(N)cc(N)n2)cs1)c1cc(-c2ccc(S(=O)(=O)N3CCN(CC(=O)O)CC3)cc2)ccc1C [OR0649, 2-(4-((3′-((4-(4,6-Diaminopyrimidin-2-yl)thiazol-2-yl)(propyl)amino)-4′-methyl-[1,1′-biphenyl]-4-yl)sulfonyl)piperazin-1-yl)acetic acid]
IC50 [1]: 13400 ± 546 nM | AFFINITY ASSAY +ΔTm (°) (dCK): 17.6 ± 1.3 °

CCCN(c1nc(-c2nc(N)cc(N)n2)cs1)c1cc(-c2cnc(OC)cc2C(F)(F)F)ccc1C [OR0654, 2-(2-((5-(6-Methoxy-4-(trifluoromethyl)pyridin-3-yl)-2-methylphenyl)(propyl)amino)thiazol-4-yl)pyrimidine-4,6-diamine]
IC50 [1]: 610 ± 153 nM | AFFINITY ASSAY +ΔTm (°) (dCK): 18.3 ± 0.4 °

CCCN(c1nc(-c2nccc(N)n2)cs1)c1cc(-c2ccc(OCC(=O)N3CCN(C)CC3)cc2)ccc1C [OR0597, 4-(4-Aminopyrimidin-2-yl)-N-(4-methyl-4′-(2-(4-methylpiperazin-1-yl)-2-oxoethoxy)-[1,1′-biphenyl]-3-yl)-N-propylthiazol-2-amine]
AFFINITY ASSAY +ΔTm (°) (dCK): 17.1 ± 0.1 °

CCCN(c1nc(-c2nc(N)cc(N)n2)cs1)c1cc(-c2ccc(S(=O)(=O)N3CCN(C)CC3)cc2)ccc1C [OR0607, 2-(2-((4-Methyl-4′-((4-methylpiperazin-1-yl)sulfonyl)-[1,1′-biphenyl]-3-yl)(propyl)amino)thiazol-4-yl)pyrimidine-4,6-diamine]
IC50 [1]: 31 ± 27 nM | AFFINITY ASSAY +ΔTm (°) (dCK): 19.2 ± 0.6 °

CCCN(c1nc(-c2nc(N)cc(N)n2)cs1)c1cc(-c2ccc(S(=O)(=O)N3CCN(C)CC3)nc2C)ccc1C [OR0653, 2-(2-((2-Methyl-5-(2-methyl-6-((4-methylpiperazin-1-yl)sulfonyl)pyridin-3-yl)phenyl)(propyl)amino)thiazol-4-yl)pyrimidine-4,6-diamine]
IC50 [1]: 2.8 ± 1.3 nM | AFFINITY ASSAY +ΔTm (°) (dCK): 21.6 ± 0.4 °

CCCN(c1nc(-c2nc(N)cc(N)n2)cs1)c1cc(-c2ccc(S(=O)(=O)N3CCN(C)CC3)nc2)ccc1C [OR0627, 2-(2-((2-Methyl-5-(6-((4-methylpiperazin-1-yl)sulfonyl)pyridin-3-yl)phenyl)(propyl)amino)thiazol-4-yl)pyrimidine-4,6-diamine]
IC50 [1]: 48 ± 17 nM | AFFINITY ASSAY +ΔTm (°) (dCK): 17.5 ± 0.4 °

CCCN(c1nc(-c2nc(N)cc(N)n2)cs1)c1cc(-c2ccc(S(=O)(=O)N3CCNCC3)nc2C(F)(F)F)ccc1C [OR0658, 2-(2-((2-Methyl-5-(6-(piperazin-1-ylsulfonyl)-2-(trifluoromethyl)pyridin-3-yl)phenyl)(propyl)amino)thiazol-4-yl)pyrimidine-4,6-diamine]
IC50 [1]: 11.3 ± 2.1 nM | AFFINITY ASSAY +ΔTm (°) (dCK): 22.4 ± 0.1 °

CCCN(c1nc(-c2nc(N)cc(N)n2)cs1)c1cc(-c2cnc(S(=O)(=O)N3CCN(C)CC3)cc2C)ccc1C [OR0652, 2-(2-((2-Methyl-5-(4-methyl-6-((4-methylpiperazin-1-yl)sulfonyl)pyridin-3-yl)phenyl)(propyl)amino)thiazol-4-yl)pyrimidine-4,6-diamine]
IC50 [1]: 7.3 ± 2.5 nM | AFFINITY ASSAY +ΔTm (°) (dCK): 19.2 ± 0.1 °

Cc1cn([C@H]2C[C@H](O)[C@@H](CO)O2)c(=O)[nH]c1=O [dT, 1-[(2R,4S,5R)-4-Hydroxy-5-(hydroxymethyl)oxolan-2-yl]-5-methylpyrimidine-2,4(1H,3H)-dione, reference compound]
effect on disease progression / disease burden (bioluminescence) (CCRF-CEM T-ALL cell line): scarcely reduced the disease burden | day around which most of the mice died (CCRF-CEM T-ALL cell line): ~26 days

CCCN(c1nc(-c2nc(N)cc(N)n2)cs1)c1cc(Br)ccc1C [OR0652-1, 2-(2-((5-Bromo-2-methylphenyl)(propyl)amino)thiazol-4-yl)pyrimidine-4,6-diamine]
IC50 [1]: 11300 ± 1370 nM | AFFINITY ASSAY +ΔTm (°) (dCK): 13.9 ± 0.2 °
